From US7553829B2, “Treatment of chronic fatigue syndrome and fibromyalgia syndrome” (Humanetics Corporation, priority 2000, dated 2009)

Test system: chronic fatigue syndrome
Assay: Experiment 1: oral treatment of a subject diagnosed with chronic fatigue syndrome
Assay type: in vivo, human
Settings: one subject, CFS by CDC criteria; 100 mg capsules orally twice daily for two months
Method: One subject, recently diagnosed with chronic fatigue syndrome by CDC criteria, orally consumed 100 mg capsules of Δ5-androstene-3-acetyl-7,17-dione twice daily for two months. […] As testament to their improvement, they reported to their physician that they had just finished building a 20′×30′ addition to their bam, something, they said, they would not have and could not have done prior to taking Δ5-androstene-3-acetyl-7,17-dione.

CC(=O)O[C@H]1CC[C@@]2(C)C(=CC(=O)[C@@H]3[C@@H]2CC[C@]2(C)C(=O)CC[C@@H]32)C1 [Δ5-androstene-3-acetyl-7,17-dione]
improvement in their symptoms of fatigue (self-reported): 80%
mental alertness (self-reported): felt more mentally alert
